Data on 26 compounds can be found in patent US20230012368A1 (Hoffmann-La Roche Inc., priority 2018, published 2023).

Where a name gives a salt, the structure may show the parent alone.

For one assay, the system named is Acinetobacter baumannii ATCC 17978. Nature of the assay: Antimicrobial susceptibility testing: 90% growth inhibitory concentration (IC90) determination. Type of assay: cell-based. The following applies: 90% growth inhibitory concentration; Acinetobacter baumannii ATCC17978; Iso-Sensitest broth, OD 600 nm over 16h; hydrochloride; read-out: ATCC17978 IC90. A digest of the protocol: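 Growth of the Acinetobacter baumannii strain was followed by optical density at 600 nm every 20 minutes for 16h at 35±2° C. Inoculum was ~5×10^(5) CFU/ml in Iso-Sensitest medium, with twofold compound dilutions (e.g. 50 to 0.097 μM final). The 90% inhibitory concentration was derived in log-phase growth.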
`CCc1cc(Nc2nccn3c(-c4ccc(OC)c(F)c4F)cnc23)ccc1C(=O)NCC(O)CN` (centres unmarked) [Example 147, N-(3-amino-2-hydroxy-propyl)-4-[[3-(2,3-difluoro-4-methoxy-phenyl)imidazo[1,2-a]pyrazin-8-yl]amino]-2-ethyl-benzamide;hydrochloride]: the IC90 (commonly the concentration at which the effect reaches the 90% level) came out at 450 nM.

The same assay, now with this note: 90% growth inhibitory concentration; Acinetobacter baumannii ATCC17978; Iso-Sensitest broth, OD 600 nm over 16h; read-out: ATCC17978 IC90.
With `CCc1cc(Nc2nccn3c(-c4ccc(OC)c(F)c4F)cnc23)ccc1C(=O)NCCNC(=O)[C@@H](N)CCCNC(=N)NCCCC(=O)O` [Example 157, (S)-7-amino-1-(4-((3-(2,3-difluoro-4-methoxyphenyl)imidazo[1,2-a]pyrazin-8-yl)amino)-2-ethylphenyl)-12-imino-1,6-dioxo-2,5,11,13-tetraazaheptadecan-17-oic acid trihydrochloride], the IC90 came out at 320 nM.
The same measure, in the same setting: the value for `CCc1cc(Nc2nccn3c(-c4ccc(OC)c(F)c4F)cnc23)ccc1C(=O)NCC(=O)N(C)CCNC` [Example 158, 4-((3-(2,3-difluoro-4-methoxyphenyl)imidazo[1,2-a]pyrazin-8-yl)amino)-2-ethyl-N-(2-(methyl(2-(methylamino)ethyl)amino)-2-oxoethyl)benzamide; formic acid] was 160 nM.
The same measure, in the same setting: the value for `COc1ccc(-c2cnc3c(Nc4ccc(C(=O)NCCCN)c(C(F)F)c4)nccn23)c(F)c1F` [Example 165, N-(3-aminopropyl)-4-[[3-(2,3-difluoro-4-methoxy-phenyl)imidazo[1,2-a]pyrazin-8-yl]amino]-2-(difluoromethyl)benzamide; formic acid] was 530 nM.

The same assay, now with this note: Acinetobacter baumannii, ATCC17978, 16 h, 90% growth inhibitory concentration; Acinetobacter baumannii ATCC17978; Iso-Sensitest broth, OD 600 nm over 16h; read-out: ATCC17978 IC90.
With `CCc1cc(Nc2nccn3c(-c4ccc(OCC#N)c(F)c4F)cnc23)ccc1C(=O)NCCNC(=O)[C@@H](N)CCCCN` [Example 143, 4-[[3-[4-(cyanomethoxy)-2,3-difluoro-phenyl]imidazo[1,2-a]pyrazin-8-yl]amino]-N-[2-[[(2S)-2,6-diaminohexanoyl]amino]ethyl]-2-ethyl-benzamide formate], the IC90 was determined as 160 nM.
Same read-out and setting: the value for `CCc1cc(Nc2nccn3c(-c4ccc(OCC#N)c(F)c4F)cnc23)ccc1C(=O)NCCNC(=O)[C@@H](N)CCN` [Example 144, 4-[[3-[4-(cyanomethoxy)-2,3-difluoro-phenyl]imidazo[1,2-a]pyrazin-8-yl]amino]-N-[2-[[(2S)-2,4-diaminobutanoyl]amino]ethyl]-2-ethyl-benzamide formate] was 90 nM; that for `CCc1cc(Nc2nccn3c(-c4ccc(OCC#N)c(F)c4F)cnc23)ccc1C(=O)NCCNC(=O)[C@@H](N)CN` [Example 145, 4-[[3-[4-(cyanomethoxy)-2,3-difluoro-phenyl]imidazo[1,2-a]pyrazin-8-yl]amino]-N-[2-[[(2S)-2,3-diaminopropanoyl]amino]ethyl]-2-ethyl-benzamide formate] was 150 nM.
Consider `CCc1cc(Nc2nccn3c(-c4ccc(OC)c(F)c4F)cnc23)ccc1C(=O)NCC(O)CNC(=O)CCN` (centres unmarked) [Example 146, N-[3-(3-aminopropanoyl-amino)-2-hydroxy-propyl]-4-[[3-(2,3-difluoro-4-methoxy-phenyl)imidazo[1,2-a]pyrazin-8-yl]amino]-2-ethyl-benzamide hydrochloride], for which the 90% effect concentration (IC90) stood at 190 nM.
Still for that read-out and setting: the value for `CCc1cc(Nc2nccn3c(-c4ccc(OCC#N)c(F)c4F)cnc23)ccc1C(=O)NCCNC(=O)[C@H](N)CCCNC(=N)N` [Example 148, N-[2-[[(2R)-2-amino-5-guanidino-pentanoyl]amino]ethyl]-4-[[3-[4-(cyanomethoxy)-2,3-difluoro-phenyl]imidazo[1,2-a]pyrazin-8-yl]amino]-2-ethyl-benzamide formate] was 100 nM; that for `Cc1cc(Nc2nccn3c(-c4ccc(OC(F)F)cc4)cnc23)ccc1C(=O)N(C)CCC1CCN(CCC(=O)O)CC1` [Example 150, 3-(4-(2-(4-((3-(4-(difluoromethoxy)phenyl)imidazo[1,2-a]pyrazin-8-yl)amino)-N,2-dimethylbenzamido)ethyl)piperidin-1-yl)propanoic acid] was 650 nM.
The same measure, in the same setting: as for `C/C=C/c1cc(Nc2nccn3c(-c4ccc(OC(F)F)cc4)cnc23)ccc1C(=O)NC` [Example 151, (E)-4-((3-(4-(Difluoromethoxy)phenyl)imidazo[1,2-a]pyrazin-8-yl)amino)-N-methyl-2-(prop-1-en-1-yl)benzamide], the figure is 2000 nM; as for `CCCc1cc(Nc2nccn3c(-c4ccc(OC(F)F)cc4)cnc23)ccc1C(=O)NC` [Example 152, 4-((3-(4-(Difluoromethoxy)phenyl)imidazo[1,2-a]pyrazin-8-yl)amino)-N-methyl-2-propylbenzamide], 1100 nM.
On the same count and under the same terms, as for `COc1ccc(-c2cnc3c(Nc4ccc(C(=O)N(C)CC5OCC(N)CO5)c(C)c4)nccn23)cc1` (centres unmarked) [Example 153, N-((5-Amino-1,3-dioxan-2-yl)methyl)-4-((3-(4-methoxyphenyl)imidazo[1,2-a]pyrazin-8-yl)amino)-N,2-dimethylbenzamide], the figure is 530 nM; as for `COc1ccc(-c2cnc3c(Nc4ccc(C(=O)NC(CO)CO)c(C)c4)nccn23)cc1` [Example 154], 820 nM; as for `CCc1cc(Nc2nccn3c(-c4ccc(OC)c(F)c4F)cnc23)ccc1C(=O)NCCCNC(=O)[C@H](CCCNC(=N)N)NC(=O)[C@@H](N)CCC(=O)O` [Example 156, (S)-4-amino-5-(((S)-1-((3-(4-((3-(2,3-difluoro-4-methoxyphenyl)imidazo[1,2-a]pyrazin-8-yl)amino)-2-ethylbenzamido)propyl)amino)-5-guanidino-1-oxopentan-2-yl)amino)-5-oxopentanoic acid trihydrochloride], 340 nM.
In the case of `CCc1cc(Nc2nccn3c(-c4ccc(OCC#CCOCCN)c(F)c4F)cnc23)ccc1C(=O)NCCCN` [Example 159, 4-[[3-[4-[4-(2-aminoethoxy)but-2-ynoxy]-2,3-difluoro-phenyl]imidazo[1,2-a]pyrazin-8-yl]amino]-N-(3-aminopropyl)-2-ethyl-benzamide], the concentration for an effect of 90% (IC90) turned out to be 230 nM.
In the case of `CCc1cc(Nc2nccn3c(-c4ccc(OC)c(F)c4F)cnc23)ccc1C(=O)NCCC(=O)N1CCN[C@H](CO)C1` [Example 160, 4-[[3-(2,3-difluoro-4-methoxy-phenyl)imidazo[1,2-a]pyrazin-8-yl]amino]-2-ethyl-N-[3-[(3S)-3-(hydroxymethyl)piperazin-1-yl]-3-oxo-propyl]benzamide], the IC90 came to 150 nM.
Same read-out and setting: as for `CCc1cc(Nc2nccn3c(-c4ccc(OC)c(F)c4F)cnc23)ccc1C(=O)NCCCC(=O)N1CCN[C@H](CO)C1` [Example 161, 4-[[3-(2,3-difluoro-4-methoxy-phenyl)imidazo[1,2-a]pyrazin-8-yl]amino]-2-ethyl-N-[4-[(3S)-3-(hydroxymethyl)piperazin-1-yl]-4-oxo-butyl]benzamide], the figure is 80 nM; as for `CCc1cc(Nc2nccn3c(-c4ccc(OC)c(F)c4F)cnc23)ccc1C(=O)NCCCCCC(=O)N1CCN[C@H](CO)C1` [Example 162, 4-[[3-(2,3-difluoro-4-methoxy-phenyl)imidazo[1,2-a]pyrazin-8-yl]amino]-2-ethyl-N-[6-[(3S)-3-(hydroxymethyl)piperazin-1-yl]-6-oxo-hexyl]benzamide], 80 nM.
The same measure, in the same setting: the value for `CCc1cc(Nc2nccn3c(-c4ccc(OC)c(F)c4F)cnc23)ccc1C(=O)NCCCCC(=O)N1CCN[C@H](CO)C1` [Example 163, 4-[[3-(2,3-difluoro-4-methoxy-phenyl)imidazo[1,2-a]pyrazin-8-yl]amino]-2-ethyl-N-[5-[(3S)-3-(hydroxymethyl)piperazin-1-yl]-5-oxo-pentyl]benzamide] was 80 nM.
Same read-out and setting: as for `COc1ccc(-c2cnc3c(Nc4ccc5c(c4)CCN(CCCN)C5=O)nccn23)c(F)c1F` [Example 164, 2-(3-aminopropyl)-6-[[3-(2,3-difluoro-4-methoxy-phenyl)imidazo[1,2-a]pyrazin-s-yl]amino]-3,4-dihydroisoquinolin-1-one], the figure is 290 nM.
As for `CNC(=O)c1ccc(Nc2nccn3c(-c4ccc(OC(F)F)cc4)cnc23)cc1C(C)C` [Example 166, 4-[[3-[4-(difluoromethoxy)phenyl]imidazo[1,2-a]pyrazin-8-yl]amino]-2-isopropyl-N-methyl-benzamide], the 90% effect concentration (IC90) was 980 nM.
Still for that read-out and setting: the value for `CNC(=O)c1ccc(Nc2nccn3c(-c4ccc(OC(F)F)cc4)cnc23)cc1C1CC1` [Example 167, 2-cyclopropyl-4-[[3-[4-(difluoromethoxy)phenyl]imidazo[1,2-a]pyrazin-8-yl]amino]-N-methyl-benzamide] was 1100 nM.
On the same count and under the same terms, the value for `CNC(=O)c1ccc(Nc2nccn3c(-c4ccc(OC(F)F)cc4)cnc23)cc1COCCO` [Example 168, 4-[[3-[4-(difluoromethoxy)phenyl]imidazo[1,2-a]pyrazin-8-yl]amino]-2-(2-hydroxyethoxymethyl)-N-methyl-benzamide] was 2000 nM; that for `CCc1cc(Nc2nccn3c(-c4ccc(OC)c(F)c4F)cnc23)ccc1C(=O)NC(C)CNC(C)=N` (centres unmarked) [Example 169, 4-[[3-(2,3-difluoro-4-methoxyphenyl)imidazo[1,2-a]pyrazin-8-yl]amino]-N-[1-(ethanimidoylamino)propan-2-yl]-2-ethylbenzamide] was 70 nM; that for `Cc1cc(Nc2nccn3c(-c4ccc(OC(F)F)cc4)cnc23)ccc1C(=O)N(C)CC(=O)N1CCN(C)CC1` [Example 170, 4-[[3-[4-(difluoromethoxy)phenyl]im-idazo[1,2-a]pyrazin-8-yl]amino]-N,2-dimethyl-N-[2-(4-methylpiperazin-1-yl)-2-oxoethyl]benzamide] was 1900 nM.
